Assay results reported in patent publication US11953435B2, “Zinc-responsive fluorophores” (Northwestern University, priority 2019, dated 2024).
“Also recorded” adds a separate entry of the source.

Biological target: BSA (Bos taurus, UniProt P02769)
Assay: Interaction of ZincBY probes with proteins (BSA): emission, absorbance, polarization
Assay type: binding
Settings: for interaction with BSA (in words) / fluorescence turn-on in response to zinc in the presence of BSA / emission maximum in the presence of BSA: 10 mg/mL BSA; for fluorescence turn-on in response to zinc in the presence of BSA: holo vs apo; for polarization: apo and holo forms
Protocol: Aqueous solutions were prepared by using de-ionized water with resistivity […], obtained using a Milli-Q water purification system. In order to properly compare the photophysical properties of ZincBY-2, ZincBY-3, and ZincBY-4 to ZincBY-1, the photophysical properties of ZincBY-1 we remeasured. Tested values differed from the previously published values (Ref. B2; incorporated by reference in its entirety). It was determined that copper was present in the aqueous buffer used for in vitro analysis of the previous samples. The corrected values are used herein, utilizing buffers that are copper-free. Stock solutions of ZincBY-1, ZincBY-2, ZincBY-3, and ZincBY-4 were prepared at concentrations of 5 mM and stored at −20° C. in aliquots that were used immediately after thawing for each experiment. Unless otherwise stated, all spectroscopic methods were conducted in aqueous buffer containing 50 mM HEPES (pH 7.2) and 0.1 M KNO3. UV-visible spectra were acquired on a PerkinElmer Lambda 650 UV/Vis spectrophotometer using quartz cuvettes from Starna (1 cm path length, 10 cm path length used in extinction coefficient and quantum yield determination). Fluorescence spectra were acquired using a PerkinElmer LS 55 fluorescence spectrophotometer. For measurements containing zinc, 99.0% ZnNO3 hexahydrate (final concentration 5 μM) was used. For experiments analyzing apo probes, N,N,N′,N′-Tetrakis(2-pyridylmethyl)ethylenediamine (TPEN) (final concentration 5 μM) was added to solution. Quantum Yield and Extinction Coefficient Determination. Quantum yields for apo and holo ZincBY-1, ZincBY-2, ZincBY-3, and ZincBY-4 were determined by plotting absorbance vs. fluorescence intensity of solutions containing ZincBY-1, ZincBY-2, ZincBY-3, or ZincBY-4 at probe concentrations ranging from 50-250 nM. Serial dilution was used to make solutions at different concentrations. Fluorescein dissolved in 0.1 N NaOH was used as the quantum yield standard, using a literature-determined quantum yield of 0.95.^3 For all fluorophore solutions, fluorescence excitation was set at 490 nm and fluorescence emission was integrated from 510 nm to 650 nm. Zinc Dissociation Constant. Fluorescence spectra were recorded using zinc probes (ZincBY-1, ZincBY-2, ZincBY-3, or ZincBY-4; 200 nM) and ZnSO4 (various concentrations). The solutions were equilibrated in the dark for 1 h prior to measurement. The concentration of ZnSO4 was varied from 1 μM to 9 mM in buffer solution (50 mM HEPES and 0.1 M KNO3, and pH 7.2) containing 10 mM EGTA. Free Zn^2+ was calculated according to a previously reported method (Ref. B4; incorporated by reference in its entirety). Data was fit to the following one-site binding equation: F=(FminKd+Fmax[Zn^2+])/(Kd+[Zn^2+]) pH Response. The fluorescence spectra of zinc probes (ZincBY-2, ZincBY-3, or ZincBY-4; 200 nM) wasere measured at various pH values (4.5-11). The following buffers were used at 50 mM concentration with 0.1 M KNO3: NaOAc/AcOH (pH 4.0-4.5), MES (pH 5.0-6.5), HEPES (pH 7.0-8.0), CHES (pH 8.5-9.5), CAPS (pH 10.0-11.0). Metal Ion Response. The fluorescence spectra of zinc probes (ZincBY-2, ZincBY-3, or ZincBY-4; 200 nM) were measured in the presence an excess of metal ion including 1 mM KNO3, 1 mM NaNO3, 1 mM CaSO4, 1 mM MgSO4, 15 μM MnSO4, 15 μM (NH4)2Fe(SO4)2, 15 μM NH4Fe(SO4)2, 15 μM CoSO4, 15 μM NiSO4, 15 μM CuSO4, 15 μM [Cu(CH3CN)4]PF6, 15 μM CdSO4, 15 μM Hg(NO3)2, 15 μM Pb(NO3)2, or 15 μM ZnSO4. The fluorescence spectra were compared to that of ZincBY-2 (200 nM), ZincBY-3 (200 nM), or ZincBY-4 (200 nM) in the presence of 10 μM TPEN. Determination of octanol-water partition coefficients (log P). A log P value for each probe was determined by agitating nanomolar solutions of each probe in a 1:1 mixture of HEPES buffer and 1-octanol. Solutions were allowed to settle for 1 h and then the fluorescence intensity of each phase was measured. Standard curves of the fluorescence of known concentrations of probes in both solutions were used to determine concentrations. […]

BSA, sequence (P02769 25-607): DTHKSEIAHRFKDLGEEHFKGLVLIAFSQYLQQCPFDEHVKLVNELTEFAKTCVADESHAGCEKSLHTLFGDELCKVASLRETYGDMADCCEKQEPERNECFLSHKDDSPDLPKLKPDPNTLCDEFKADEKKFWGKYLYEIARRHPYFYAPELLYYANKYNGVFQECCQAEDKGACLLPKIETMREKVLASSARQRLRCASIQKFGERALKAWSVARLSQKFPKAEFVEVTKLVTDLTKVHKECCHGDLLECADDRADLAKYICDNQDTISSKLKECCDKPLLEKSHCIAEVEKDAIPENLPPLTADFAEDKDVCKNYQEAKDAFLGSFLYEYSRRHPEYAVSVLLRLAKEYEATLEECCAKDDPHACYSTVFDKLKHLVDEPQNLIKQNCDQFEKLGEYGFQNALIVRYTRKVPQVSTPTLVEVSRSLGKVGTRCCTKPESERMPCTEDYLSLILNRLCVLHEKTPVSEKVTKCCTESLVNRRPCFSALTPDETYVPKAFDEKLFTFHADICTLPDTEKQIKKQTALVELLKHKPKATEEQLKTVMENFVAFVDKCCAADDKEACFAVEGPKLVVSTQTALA

## COc1ccc2n1[B-](F)(F)[N+]1=C(N(CCN(Cc3ccccn3)Cc3ccccn3)Cc3ccccn3)C=CC1=C2c1c(C)cc(C)cc1C [ZincBY-1, reference compound]
  interaction with BSA (in words): The same interactions can be found
  fluorescence turn-on in response to zinc in the presence of BSA: the fluorescence of apo-ZincBY-1 matches that of holo-ZincBY-1; also recorded: no fluorescence turn-on was observed

## Cc1cc(C)c(C2=C3C=CC(OCCN=[N+]=[N-])=[N+]3[B-](F)(F)n3c2ccc3N(CCN(Cc2ccccn2)Cc2ccccn2)Cc2ccccn2)c(C)c1 [ZincBY-2, N1-(7-(2-azidoethoxy)-5,5-difluoro-10-mesityl-5H-4λ4,5λ4-dipyrrolo[1,2-c:2′,1′-f][1,3,2]diazaborinin-3-yl)-N1,N2,N2-tris(pyridin-2-ylmethyl)ethane-1,2-diamine]
  interaction with BSA (in words): The same interactions can be found

## Cc1cc(C)c(C2=C3C=CC(OCCN)=[N+]3[B-](F)(F)n3c2ccc3N(CCN(Cc2ccccn2)Cc2ccccn2)Cc2ccccn2)c(C)c1 [ZincBY-3, N1-(7-(2-aminoethoxy)-5,5-difluoro-10-mesityl-5H-4λ4,5λ4-dipyrrolo[1,2-c:2′,1′-f][1,3,2]diazaborinin-3-yl)-N1,N2,N2-tris(pyridin-2-ylmethyl)ethane-1,2-diamine]
  interaction with BSA (in words): The same interactions can be found

## CC(=O)NCCOc1ccc2n1[B-](F)(F)[N+]1=C(N(CCN(Cc3ccccn3)Cc3ccccn3)Cc3ccccn3)C=CC1=C2c1c(C)cc(C)cc1C [ZincBY-4, N-(2-((7-((2-(bis(pyridin-2-ylmethyl)amino)ethyl)(pyridin-2-ylmethyl)amino)-5,5-difluoro-10-mesityl-5H-5λ4,6λ4-dipyrrolo[1,2-c:2′,1′-f][1,3,2]diazaborinin-3-yl)oxy)ethyl)acetamide]
  interaction with BSA (in words): binds readily to the lipid transport protein
  fluorescence turn-on in response to zinc in the presence of BSA: two-fold increase in fluorescence intensity over its apo form; also recorded: ca. two-fold
Presence of excess BSA
  polarization: 0.37
Without BSA
  polarization: 0.03
apo
  emission maximum in the presence of BSA: 590 nm
holo, excited at 480 nm
  emission maximum in the presence of BSA: 575 nm
